Reference: PubChem BioAssay (NCI)
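Method: 48-hour compound exposure of cells in 96-well plates, five concentrations, linear interpolation of endpoints. The concentration for 50% growth inhibition is given as GI50. TGI denotes the concentration required for complete inhibition of growth.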

Key:
Test in all cases: growth of human tumour cells (NCI), 48 h
[1] = tested on: OVCAR-5 ovarian
[2] = tested on: NCI-H522 lung
[3] = tested on: ACHN renal
[4] = tested on: NCI/ADR-RES ovarian
[5] = tested on: SW-620 colon
[6] = tested on: HS 578T breast
[7] = tested on: HT29 colon
[8] = tested on: DU-145 prostate
[9] = tested on: SR leukemia
[10] = tested on: CCRF-CEM leukemia

SMILES | TGI [1] [µM] | TGI [2] [µM] | TGI [3] [µM] | TGI [4] [µM] | TGI [5] [µM] | TGI [6] [µM] | TGI [7] [µM] | TGI [8] [µM] | TGI [9] [µM] | GI50 [1] [µM] | GI50 [2] [µM] | GI50 [4] [µM] | GI50 [5] [µM] | GI50 [6] [µM] | GI50 [7] [µM] | GI50 [8] [µM] | GI50 [10] [µM] | TGI [10] [µM] | GI50 [9] [µM] | GI50 [3] [µM]
CC1(C)SC2C(C(=O)O)N=C(Cc3ccccc3)N2C1C(=O)O (centres undefined) | > 100 | > 100 | > 100 | > 100 | > 100 | 95.7 | 29 | > 100 | > 100 | – | – | – | – | – | – | – | – | – | – | –
CC(=O)O[C@H](C[C@H](C(C)C)N(C)C(=O)[C@@H](NC(=O)[C@H]1CCCCN1C)C(C)C)c1nc(C(=O)N[C@@H](Cc2ccccc2)C[C@H](C)C(=O)O)c(C)s1 | > 25 | > 25 | – | > 25 | > 25 | > 25 | > 25 | > 25 | > 25 | 0.0085 | < 0.0025 | 0.0574 | < 0.0025 | < 0.0025 | < 0.0025 | < 0.0025 | < 0.0025 | > 25 | < 0.0025 | –
COc1ccc(C(=S)c2cc(OC)c(OC)c(OC)c2)cc1OC(=O)CCl | > 100 | – | 61.5 | > 100 | > 100 | > 100 | > 100 | > 100 | > 100 | 3.32 | – | < 0.0127 | < 0.0146 | 0.023 | 1.99 | 0.0311 | < 0.0167 | > 100 | < 0.01 | 0.0214
O=c1ncc(-c2ccc(C(F)(F)F)cc2)c(NC2CCCCCC2)[nH]1 | 48.3 | 44.4 | > 100 | 68.2 | 68.7 | 53.9 | 39 | 98.1 | 38.3 | 22.9 | 19.7 | 25.2 | 23.9 | 17.9 | 21.5 | 31.6 | 19.7 | 48 | 16.3 | 30.9
CC[C@H](C)c1occ2c(O)c(C(=O)O)c(=O)cc-2c1C | 36.7 | 30.7 | 65.4 | 50.4 | 44.5 | > 100 | 62.3 | > 100 | 53.5 | – | – | – | – | – | – | – | – | 53.5 | – | –
N=c1ccn2c(n1)OC1C(OP(=O)(O)O)C(CO)OC12 (centres undefined) | > 100 | > 100 | 14 | > 100 | > 100 | > 100 | > 100 | > 100 | > 51.1 | – | – | – | – | – | – | – | – | – | – | –
O=C(OC(C(=O)O)C(OC(=O)c1ccccc1)C(=O)O)c1ccccc1 (centres undefined) (tested in a mixture with another compound) | > 100 | 55.4 | > 100 | > 100 | > 100 | 64.8 | > 100 | > 100 | > 100 | – | – | – | – | – | – | – | – | > 100 | – | –
COc1ccc(OC)c(/C=C/c2nnc(Nc3ccc(Cl)cc3)o2)c1 | > 100 | 83.7 | 19.9 | 98.1 | > 100 | 8.01 | 28.3 | 36.9 | > 100 | 32.5 | 7.13 | 7.62 | 18.3 | 2.71 | 9.44 | 11.4 | > 100 | > 100 | 48.2 | 3.29
